Source: patent US8846709B2, “7-(3,5-dimethyl-4-isoxazolyl)-8-(methyloxy)-1H-imidazo[4,5-C]quinoline derivatives” (GlaxoSmithKline LLC, priority 2011, dated 2014)
pIC50: −log10 of the molar value.

System: LPS induced IL-6 secretion from whole blood
Assay: Measurement of LPS Induced IL-6 Secretion from Whole Blood
Format: cell-based
Settings: IL-6 in whole blood, LPS 200 ng/ml, 24 hours
Method: Activation of monocytic cells by agonists of toll-like receptors such as bacterial lipopolysaccharide (LPS) results in production of key inflammatory mediators including IL-6. Such pathways are widely considered to be central to the pathophysiology of a range of auto-immune and inflammatory disorders.
Compounds to be tested are diluted to give a range of appropriate concentrations of which 1 μl of the diluted stocks is added to a 96 well plate. Following addition of whole blood (130 μl) the plates are incubated at 37 degrees (5% CO2) for 30 min before the addition of 10 μl of 2.8 ug/ml LPS, diluted in complete RPMI 1640 (final concentration=200 ng/ml), to give a total volume of 140 ul per well. After further incubation for 24 hours at 37 degrees, 140 μl of PBS are added to each well. The plates are sealed, shaken for 10 minutes and then centrifuged (2500 rpm×10 min). 100 μl of the supernatant are removed and IL-6 levels assayed by immunoassay (typically by MesoScale Discovery technology) either immediately or following storage at −20 degrees. Concentration response curves for each compound was generated from the data and an IC50 value was calculated

Compound | pIC50
COc1cc2c(cc1-c1c(C)noc1C)ncc1nc(NCCO)n(CC3CCOCC3)c12 [Example 2, 2-{[7-(3,5-dimethyl-4-isoxazolyl)-8-(methyloxy)-1-(tetrahydro-2H-pyran-4-ylmethyl)-1H-imidazo[4,5-c]quinolin-2-yl]amino}ethanol] | < 5.50
COc1cc2c(cc1-c1c(C)noc1C)ncc1nc(NCCN)n(CC3CCOCC3)c12 [Example 8, N1-(7-(3,5-dimethylisoxazol-4-yl)-8-methoxy-1-((tetrahydro-2H-pyran-4-yl)methyl)-1H-imidazo[4,5-c]quinolin-2-yl)ethane-1,2-diamine] | < 5.50
